Results as given in ChEMBL document CHEMBL4229379, “Synthesis and structure-activity relationship of novel bisindole amidines active against MDR Gram-positive and Gram-negative bacteria” (Eur J Med Chem, 2018).
In brackets after ≈: the same amount, converted by molar mass.

Columns and labels:
Type in all cases: functional
[1] = system: Escherichia coli; assay: Antibacterial activity against extended-spectrum beta-lactamase deficient Escherichia coli 1515 after 18 hrs by CLSI broth microdilution method; conditions: Escherichia coli, 1515, 18 h
[2] = system: Enterobacter cloacae; assay: Antibacterial activity against new delhi metallo-beta-lactamase-1 harboring Enterobacter cloacae 13-1 after 18 hrs by CLSI broth microdilution method; conditions: 13-1, 18 h
[3] = system: Proteus mirabilis; assay: Antibacterial activity against Proteus mirabilis 12-6 after 18 hrs by CLSI broth microdilution method; conditions: 12-6, 18 h
[4] = system: Klebsiella pneumoniae; assay: Antibacterial activity against extended-spectrum beta-lactamase deficient Klebsiella pneumoniae 7 after 18 hrs by CLSI broth microdilution method; conditions: Klebsiella pneumoniae, 7, 18 h
[5] = system: Enterococcus faecalis; assay: Antibacterial activity against vancomycin-sensitive Enterococcus faecalis 12-5 after 18 hrs by CLSI broth microdilution method; conditions: 12-5, 18 h
[6] = system: Klebsiella pneumoniae; assay: Antibacterial activity against extended-spectrum beta-lactamase deficient Klebsiella pneumoniae 12-4 after 18 hrs by CLSI broth microdilution method; conditions: 12-4, 18 h
[7] = system: Escherichia coli; assay: Antibacterial activity against extended-spectrum beta-lactamase harboring Escherichia coli 13-1 after 18 hrs by CLSI broth microdilution method; conditions: 13-1, 18 h
[8] = system: Enterococcus faecalis; assay: Antibacterial activity against vancomycin-sensitive Enterococcus faecalis ATCC 29212 after 18 hrs by CLSI broth microdilution method; conditions: ATCC 29212, 18 h
[9] = system: Klebsiella pneumoniae; assay: Antibacterial activity against carbapenem-resistant Klebsiella pneumoniae 12-11 after 18 hrs by CLSI broth microdilution method; conditions: 12-11, 18 h
[10] = system: Klebsiella pneumoniae; assay: Antibacterial activity against extended-spectrum beta-lactamase harboring Klebsiella pneumoniae 12-8 after 18 hrs by CLSI broth microdilution method; conditions: 12-8, 18 h
[11] = system: Staphylococcus aureus; assay: Antibacterial activity against methicillin-sensitive Staphylococcus aureus 15 after 18 hrs by CLSI broth microdilution method; conditions: Staphylococcus aureus, 15, 18 h
[12] = system: Enterobacter cloacae; assay: Antibacterial activity against new delhi metallo-beta-lactamase-1 harboring Enterobacter cloacae CDC1000654 after 18 hrs by CLSI broth microdilution method; conditions: CDC1000654, 18 h
[13] = system: Klebsiella aerogenes; assay: Antibacterial activity against Enterobacter aerogenes ATCC 13048 after 18 hrs by CLSI broth microdilution method; conditions: ATCC 13048, 18 h
[14] = system: Staphylococcus epidermidis; assay: Antibacterial activity against methicillin-sensitive Staphylococcus epidermidis ATCC 12228 after 18 hrs by CLSI broth microdilution method; conditions: ATCC 12228, 18 h
[15] = system: Citrobacter freundii; assay: Antibacterial activity against Citrobacter freundii ATCC 43864 after 18 hrs by CLSI broth microdilution method; conditions: ATCC 43864, 18 h
[16] = system: Staphylococcus aureus; assay: Antibacterial activity against methicillin-sensitive Staphylococcus aureus 12-28 after 18 hrs by CLSI broth microdilution method; conditions: 12-28, 18 h
[17] = system: Enterococcus faecium; assay: Antibacterial activity against vancomycin-sensitive Enterococcus faecium 12-3 after 18 hrs by CLSI broth microdilution method; conditions: 12-3, 18 h
[18] = system: Pseudomonas aeruginosa; assay: Antibacterial activity against Pseudomonas aeruginosa 12-16 after 18 hrs by CLSI broth microdilution method; conditions: 12-16, 18 h
[19] = system: Escherichia coli; assay: Antibacterial activity against extended-spectrum beta-lactamase deficient Escherichia coli ATCC 25922 after 18 hrs by CLSI broth microdilution method; conditions: ATCC 25922, 18 h
[20] = system: Staphylococcus epidermidis; assay: Antibacterial activity against methicillin-sensitive Staphylococcus epidermidis 12-6 after 18 hrs by CLSI broth microdilution method; conditions: 12-6, 18 h
[21] = system: Staphylococcus aureus; assay: Antibacterial activity against methicillin-sensitive Staphylococcus aureus ATCC 29213 after 18 hrs by CLSI broth microdilution method; conditions: ATCC 29213, 18 h
[22] = system: Staphylococcus aureus; assay: Antibacterial activity against methicillin-resistant Staphylococcus aureus 12-33 after 18 hrs by CLSI broth microdilution method; conditions: 12-33, 18 h
[23] = system: Acinetobacter calcoaceticus; assay: Antibacterial activity against Acinetobacter calcoaceticus ATCC 19606 after 18 hrs by CLSI broth microdilution method; conditions: ATCC 19606, 18 h
[24] = system: Enterococcus faecalis; assay: Antibacterial activity against vancomycin-resistant Enterococcus faecalis ATCC 51299 after 18 hrs by CLSI broth microdilution method; conditions: ATCC 51299, 18 h
[25] = system: Enterobacter cloacae; assay: Antibacterial activity against Enterobacter cloacae ATCC 43560 after 18 hrs by CLSI broth microdilution method; conditions: ATCC 43560, 18 h
[26] = system: Proteus vulgaris; assay: Antibacterial activity against Proteus vulgaris ATCC 29905 after 18 hrs by CLSI broth microdilution method; conditions: ATCC 29905, 18 h
[27] = system: Klebsiella pneumoniae; assay: Antibacterial activity against carbapenem-resistant Klebsiella pneumoniae 12-12 after 18 hrs by CLSI broth microdilution method; conditions: 12-12, 18 h
[28] = system: Enterococcus faecium; assay: Antibacterial activity against vancomycin-resistant Enterococcus faecium ATCC 700221 after 18 hrs by CLSI broth microdilution method; conditions: ATCC 700221, 18 h
[29] = system: Pseudomonas aeruginosa; assay: Antibacterial activity against Pseudomonas aeruginosa ATCC 27853 after 18 hrs by CLSI broth microdilution method; conditions: ATCC 27853, 18 h
[30] = system: Escherichia coli; assay: Antibacterial activity against extended-spectrum beta-lactamase harboring Escherichia coli CDC1001728 after 18 hrs by CLSI broth microdilution method; conditions: CDC1001728, 18 h
[31] = system: Providencia rettgeri; assay: Antibacterial activity against Providencia rettgeri ATCC 31052 after 18 hrs by CLSI broth microdilution method; conditions: ATCC 31052, 18 h
[32] = system: Serratia marcescens; assay: Antibacterial activity against Serratia marcescens ATCC 21074 after 18 hrs by CLSI broth microdilution method; conditions: ATCC 21074, 18 h
[33] = system: Enterococcus faecium; assay: Antibacterial activity against vancomycin-resistant Enterococcus faecium 12-1 after 18 hrs by CLSI broth microdilution method; conditions: 12-1, 18 h
[34] = system: Stenotrophomonas maltophilia; assay: Antibacterial activity against Stenotrophomonas maltophilia ATCC 13636 after 18 hrs by CLSI broth microdilution method; conditions: ATCC 13636, 18 h
[35] = system: Acinetobacter calcoaceticus; assay: Antibacterial activity against carbapenem-resistant Acinetobacter calcoaceticus 12-6 after 18 hrs by CLSI broth microdilution method; conditions: 12-6, 18 h
[36] = system: Enterococcus faecalis; assay: Antibacterial activity against vancomycin-resistant Enterococcus faecalis 09-9 after 18 hrs by CLSI broth microdilution method; conditions: 09-9, 18 h
[37] = system: Escherichia coli; assay: Antibacterial activity against extended-spectrum beta-lactamase harboring Escherichia coli 12-15 after 18 hrs by CLSI broth microdilution method; conditions: 12-15, 18 h
[38] = system: Staphylococcus epidermidis; assay: Antibacterial activity against methicillin-resistant Staphylococcus epidermidis 12-8 after 18 hrs by CLSI broth microdilution method; conditions: 12-8, 18 h
[39] = system: Klebsiella aerogenes; assay: Antibacterial activity against carbapenem-resistant Enterobacter aerogenes 11-4 after 18 hrs by CLSI broth microdilution method; conditions: 11-4, 18 h
[40] = system: Acinetobacter calcoaceticus; assay: Antibacterial activity against new delhi metallo-beta-lactamase-1 harboring Acinetobacter calcoaceticus 13-1 after 18 hrs by CLSI broth microdilution method; conditions: 13-1, 18 h
[41] = system: Staphylococcus aureus; assay: Antibacterial activity against methicillin-resistant Staphylococcus aureus ATCC 33591 after 18 hrs by CLSI broth microdilution method; conditions: ATCC 33591, 18 h
[42] = system: Klebsiella pneumoniae; assay: Antibacterial activity against new delhi metallo-beta-lactamase-1 harboring Klebsiella pneumoniae ATCC BAA-2146 after 18 hrs by CLSI broth microdilution method; conditions: ATCC BAA-2146, 18 h
[43] = system: Klebsiella pneumoniae; assay: Antibacterial activity against new delhi metallo-beta-lactamase-1 harboring Klebsiella pneumoniae 13-1 after 18 hrs by CLSI broth microdilution method; conditions: 13-1, 18 h

**Q.** With `C[C@H]1COc2c(N3CCN(C)CC3)c(F)cc3c(=O)c(C(=O)O)cn1c23.C[C@H]1COc2c(N3CCN(C)CC3)c(F)cc3c(=O)c(C(=O)O)cn1c23.O` [LEVOFLOXACIN] as the molecule, how does the MIC [1] read?
**A.** Its MIC is no more than 0.03 µg/mL.

**Q.** What about the MIC [2] of the same molecule?
**A.** The MIC was 128 µg/mL.

**Q.** And the MIC [3]?
**A.** Its MIC is 4 µg/mL.

**Q.** What about the MIC [4] of the same molecule?
**A.** Its MIC is no more than 0.03 µg/mL.

**Q.** And the MIC [5]?
**A.** Its MIC is 1 µg/mL.

**Q.** And the MIC [6]?
**A.** Its MIC is no more than 0.03 µg/mL.

**Q.** What about the MIC [7] of the same molecule?
**A.** Its MIC is 64 µg/mL.

**Q.** And the MIC [8]?
**A.** Its MIC is 0.5 µg/mL.

**Q.** What about the MIC [9] of the same molecule?
**A.** The MIC was 16 µg/mL.

**Q.** What about the MIC [10] of the same molecule?
**A.** Its MIC is 8 µg/mL.

**Q.** And the MIC [11]?
**A.** Its MIC is 0.125 µg/mL.

**Q.** And the MIC [12]?
**A.** The MIC was 32 µg/mL.

**Q.** And the MIC [13]?
**A.** The MIC was no more than 0.03 µg/mL.

**Q.** What about the MIC [14] of the same molecule?
**A.** The MIC was 0.125 µg/mL.

**Q.** What about the MIC [15] of the same molecule?
**A.** Its MIC is no more than 0.03 µg/mL.

**Q.** What about the MIC [16] of the same molecule?
**A.** The MIC was 0.125 µg/mL.

**Q.** What about the MIC [17] of the same molecule?
**A.** Its MIC is 32 µg/mL.

**Q.** What about the MIC [18] of the same molecule?
**A.** Its MIC is 8 µg/mL.

**Q.** What about the MIC [19] of the same molecule?
**A.** Its MIC is no more than 0.03 µg/mL.

**Q.** And the MIC [20]?
**A.** Its MIC is 0.5 µg/mL.

**Q.** What about the MIC [21] of the same molecule?
**A.** The MIC was 0.125 µg/mL.

**Q.** And the MIC [22]?
**A.** Its MIC is 32 µg/mL.

**Q.** And the MIC [23]?
**A.** The MIC was 0.5 µg/mL.

**Q.** What about the MIC [24] of the same molecule?
**A.** The MIC was 0.5 µg/mL.

**Q.** What about the MIC [25] of the same molecule?
**A.** Its MIC is no more than 0.03 µg/mL.

**Q.** What about the MIC [26] of the same molecule?
**A.** Its MIC is 0.125 µg/mL.

**Q.** What about the MIC [27] of the same molecule?
**A.** The MIC was 8 µg/mL.

**Q.** What about the MIC [28] of the same molecule?
**A.** Its MIC is 64 µg/mL.

**Q.** What about the MIC [29] of the same molecule?
**A.** The MIC was 0.5 µg/mL.

**Q.** And the MIC [30]?
**A.** The MIC was 16 µg/mL.

**Q.** What about the MIC [31] of the same molecule?
**A.** Its MIC is no more than 0.03 µg/mL.

**Q.** And the MIC [32]?
**A.** The MIC was 0.06 µg/mL.

**Q.** And the MIC [33]?
**A.** Its MIC is 32 µg/mL.

**Q.** What about the MIC [34] of the same molecule?
**A.** Its MIC is 0.25 µg/mL.

**Q.** And the MIC [35]?
**A.** Its MIC is 8 µg/mL.

**Q.** And the MIC [36]?
**A.** Its MIC is greater than 128 µg/mL.

**Q.** And the MIC [37]?
**A.** Its MIC is 16 µg/mL.

**Q.** What about the MIC [38] of the same molecule?
**A.** Its MIC is 4 µg/mL.

**Q.** What about the MIC [39] of the same molecule?
**A.** The MIC was 16 µg/mL.

**Q.** And the MIC [40]?
**A.** The MIC was 2 µg/mL.

**Q.** What about the MIC [41] of the same molecule?
**A.** The MIC was 0.125 µg/mL.

**Q.** What about the MIC [42] of the same molecule?
**A.** The MIC was greater than 128 µg/mL.

**Q.** Which MIC [2] does the source give for `CN(C)c1cc(NC(=O)CNC(C)(C)C)c(O)c2c1C[C@H]1C[C@H]3[C@H](N(C)C)C(O)=C(C(N)=O)C(=O)[C@@]3(O)C(O)=C1C2=O` [TIGECYCLINE] here?
**A.** The MIC was 1 µg/mL (≈ 1.71 µM).

**Q.** And the MIC [7]?
**A.** The MIC was 0.25 µg/mL (≈ 0.427 µM).

**Q.** What about the MIC [9] of the same molecule?
**A.** The MIC was 1 µg/mL (≈ 1.71 µM).

**Q.** What about the MIC [12] of the same molecule?
**A.** Its MIC is 8 µg/mL (≈ 13.7 µM).

**Q.** And the MIC [27]?
**A.** Its MIC is 1 µg/mL (≈ 1.71 µM).

**Q.** And the MIC [30]?
**A.** The MIC was 0.5 µg/mL (≈ 0.854 µM).

**Q.** What about the MIC [43] of the same molecule?
**A.** The MIC was 0.5 µg/mL (≈ 0.854 µM).

**Q.** And the MIC [35]?
**A.** The MIC was 1 µg/mL (≈ 1.71 µM).

**Q.** And the MIC [39]?
**A.** Its MIC is 1 µg/mL (≈ 1.71 µM).

**Q.** And the MIC [40]?
**A.** The MIC was 0.5 µg/mL (≈ 0.854 µM).

**Q.** And the MIC [42]?
**A.** Its MIC is 8 µg/mL (≈ 13.7 µM).
